What was measured:
erythropoietin = test: Erythropoietin production in vivo in mice, oral administration for 7 days; design: species or system mouse; settings: 7 consecutive days, plasma 24 hours after final administration, vs corn oil, DMSO+corn oil or no administration
Procedure: A mixed solution (200 μl) of each of 4 types of compounds (compounds #4, 5, 21, and 35) (10 mg/100 μl of DMSO) (10 μl) and corn oil (190 μl) was prepared. This mixed solution (200 μl) was orally administered to each mouse (C57BL/6N 8 W, male, 21-25 g) between 15:00 to 18:00 every day using a sonde. This administration was carried out for 7 consecutive days. Mice orally given corn oil or DMSO and corn oil as well as non-administered mice were used as controls.
24 hours after the final administration, each mouse was cervically dislocated, and 500 μl of blood was collected from the heart. Then, an anticoagulant (10 μl of heparin) was added thereto, and the resulting blood was centrifuged (12000 rpm×20 min, 4° C.) to isolate plasma. The plasma concentration […] of erythropoietin was measured using a kit (Quantikine Mouse/Rat Epo Immunoassay, manufactured by R&D Systems, Inc.).

Leigh cells = test: Cell death caused by oxidative stress (BSO) in Leigh syndrome patient fibroblasts; assay type: cell-based, human; settings: compound 10 μM, 4 days after BSO treatment
Procedure: In Examples 2 to 7 and Reference Example 1 below, an erythropoietin-producing human hepatocellular carcinoma cell Hep3B (obtained from ATCC [American Type Culture Collection]) was cultured and maintained under conditions of 5% CO2/20% O2 and 37° C. in an RPMI1640 (manufactured by Life Technologies, Inc./GIBCO) medium containing 100 U/mL penicillin (manufactured by Life Technologies, Inc./GIBCO), 100 μg/mL streptomycin (manufactured by Life Technologies, Inc./GIBCO), and 10% fetal bovine serum (FBS) (manufactured by Life Technologies, Inc./GIBCO) (hereinafter, referred to as “RPMI1640 common medium 1”). In Example 15 below, Leigh syndrome patients were subjected to skin biopsy to obtain skin fibroblast cells, which were then primarily cultured under conditions of 5% CO2/20% O2 and 37° C. in a DMEM low glucose (manufactured by Life Technologies, Inc./GIBCO) medium containing 100 U/mL penicillin (manufactured by Life Technologies, Inc./GIBCO), 100 μg/mL streptomycin (manufactured by Life Technologies, Inc./GIBCO), and 1% FBS (manufactured by Life Technologies, Inc./GIBCO) (hereinafter, referred to as “DMEM low glucose common medium”) to isolate cells (Leigh cells). In Example 13 below, a human kidney-derived cell line HK-2 (obtained from ATCC) was cultured and maintained under conditions of 5% CO2/20% O2 and 37° C. in a DMEM/F12 (manufactured by Life Technologies, Inc./GIBCO) medium containing 100 U/mL penicillin (manufactured by Life Technologies, Inc./GIBCO), 100 μg/mL streptomycin (manufactured by Life Technologies, Inc./GIBCO), and 10% fetal bovine serum (manufactured by Life Technologies, Inc./GIBCO) (hereinafter, referred to as “DMEM/F12 common medium”). In Example 14 below, a rat islet of Langerhans-derived cell line ISN-1e (kindly provided by Hisamitsu Ishihara, Nihon University School of Medicine) was cultured and maintained under conditions of 5% CO2/20% O2 and 37° C. in an RPMI1640 (manufactured by Life Technologies, Inc./GIBCO) medium containing 10 mM HEPES (manufactured by Sigma-Aldrich Corp.), 2 mM glutamine (manufactured by Sigma-Aldrich Corp.), 50 μM β-mercaptoethanol (manufactured by Sigma-Aldrich Corp.), 100 U/mL penicillin (manufactured by Life Technologies, Inc./GIBCO), 100 μg/mL streptomycin (manufactured by Life Technologies, Inc./GIBCO), and 10% FBS (manufactured by Life Technologies, Inc./GIBCO) (hereinafter, referred to as “RPMI1640 common medium 2”).
The Leigh cells were seeded at 4×10^4 cells/well to a 24-well cell culture plate and then cultured for 24 hours. The glutathione synthesis inhibitor BSO (L-buthionine sulphoximine) (manufactured by Sigma-Aldrich Corp.) was mixed at […] into a medium. After culture for 24 hours in the presence of BSO, each of 5 types of compounds (compounds #2, 4, 5, 21, and 35) was mixed at 10 μM into the medium. After culture for 4 days in the presence of these 5 types of compounds, the number of live cells was measured using Cell Counting Kit-8 (manufactured by Dojindo Laboratories) to calculate the survival rate of the cells (“BSO+#2”, “BSO+#4”, “BSO+#5”, “BSO+#21”, and “BSO+#35” of FIG. 17). […]

[1] = test system: mRNA expression of the erythropoietin gene; test: Quantitative PCR of erythropoietin mRNA in Hep3B cells; assay type: cell-based, human; settings: compound 10 μM, 20% O2, GAPDH internal standard
Procedure: Of the 5 types of compounds confirmed in Example 4 to be effective for promoting the transcriptional activity of the erythropoietin gene promoter, 4 types of compounds (compounds #2, 4, 5, and 21) were selected. From Hep3B cells cultured in RPMI1640 common medium 1 supplemented with each of these 4 types of compounds at a concentration of 10 μM, total RNA was extracted using TriPure Isolation Reagent (manufactured by F. Hoffmann La Roche AG) in a 6-well cell culture plate. Hep3B cells cultured in the absence of the compound (DMSO added) (“20% O2/DMSO” of FIG. 4) were used as a negative control. Hep3B cells cultured in the presence of a GATA-specific inhibitor (K7174 [10 μM]) (“20% O2/K7174” of FIG. 4) and Hep3B cells cultured under hypoxia (1% O2) conditions and in the absence of the compound (DMSO added [1%]) (“1% O2/DMSO” of FIG. 4) were used as positive controls.
The extracted RNA was used as a template to synthesize cDNA using SuperScript III RTS First-strand kit (manufactured by Invitrogen Corp.). Then, the expression of the erythropoietin mRNA was measured by quantitative PCR with GAPDH as an internal standard. The quantitative PCR was carried out using TaqMan® Gene Expression Assays (using GAPDH; Assay ID: Rn99999916_s1, and human erythropoietin; Assay ID: Hs00171267_ml TaqMan® probes [manufactured by Applied Biosystems Inc.]) and Step One Plus Real-Time PCR System (manufactured by Applied Biosystems Inc.).

Row | SMILES | amount of erythropoietin in the mouse blood (erythropoietin) | cell death of the Leigh cells by BSO (Leigh cells) | mRNA expression level of the erythropoietin gene [1]
1 | O=C(CC(C(=O)O)c1c[nH]c2ccccc12)c1ccc(F)cc1 (stereo not drawn) [compound #4, 4-(4-Fluorophenyl)-2-(1H-indol-3-yl)-4-oxo-butanoic acid] | increased | efficiently suppress the cell death | increase the mRNA expression level
2 | O=C(CC(C(=O)O)c1c[nH]c2ccccc12)c1ccc(F)cc1F (stereo not drawn) [compound #5, 4-(2,4-Difluorophenyl)-2-(1H-indol-3-yl)-4-oxo-butanoic acid] | increased | efficiently suppress the cell death | increase the mRNA expression level
3 | O=C(O)C(CCCC(F)(F)C(F)(F)F)c1c[nH]c2ccccc12 (stereo not drawn) [compound #21, α-(4,4,5,5,5-Pentafluoro-1-pentyl)-3-indoleacetic acid] | increased | efficiently suppress the cell death | increase the mRNA expression level
